Assay results from US11382878B2, “Use of metformin and sodium butyrate for treating conditions induced by chronic inflammation” (Johnpro Biotech Inc., priority 2017, dated 2022).

Key:
[1] = system: radiation induced inflammation of the rectum; assay: Radiation induced rectum inflammation in mice (gross rectum observation, H&E staining)
radiation proctitis = assay: Clinical case: radiation proctitis patient treated by enema; format: in vivo, human; details: one patient, grade 3 radiation proctitis, sulfasalazine and steroids enema treatment for 6 months

Compound	stool in the rectum (rectum mucosa function of absorbing water) ([1]; 30 Gy radiation on Day 1, rectal enema once daily Day 8 to Day 14, observed Day 14 (FIG. 4A, 4B))	crypt tissue / damage to the intestine mucosa (H&E stain) ([1]; 30 Gy radiation on Day 1, rectal enema once daily Day 8 to Day 14, rectum samples Day 14 (FIG. 5A))	response of symptoms to prior treatment (radiation proctitis)
C[C@]12CCC(=O)C=C1CC[C@@H]1[C@@H]2C(=O)C[C@@]2(C)[C@H]1CC[C@]2(O)C(=O)CO [cortisone]	a significant amount of loose stool was seen in the rectum	the crypt tissue was not observed	
O=C(O)c1cc(/N=N/c2ccc(S(=O)(=O)Nc3ccccn3)cc2)ccc1O [sulfasalazine]			refractory
